# Measurements taken from US20240277693A1, “A PHARMACEUTICAL PRODUCT CONTAINING TASQUINIMOD AND A METHOD FOR ASSESSING THE PURITY OF SAID PRODUCT” (ACTIVE BIOTECH AB, priority 2021, published 2024).
# How the values were obtained:
# [1] = Stability testing of capsules at 40° C./75% RH; format: physicochemical
# Text: In some embodiments, the method disclosed herein comprises storing (keeping) a sample of the pharmaceutical product for a period of time, preferably under selected conditions of temperature and humidity. The amount (or concentration) of tasquinimod and of at least one of compounds I, II, III and IV in the sample may preferably be determined at the beginning or before the storage period and at the end of the storage period. The selected storage conditions may include a temperature in the range of, for example, 20° C. to 40° C., and a relative humidity in the surrounding atmosphere in the range of, for example, 30% to 75%; e.g. 25° C. and 60% RH, or 30° C. and 65% RH, or 35° C. and 70% RH, or 40° C. and 75% RH. The storage period may extend over a time period in the range of, for example, several weeks to several years. For example, the stability testing period (“storage period”) may be 2 weeks, 3 weeks, 1 month, 2 months, 3 months, 4 months, 5 months, 6 months, 9 months, 1 year, 18 months, 2 years, 3 years, 4 years or even 5 years or longer. A shorter storage period may be selected by use of higher storage temperature and/or higher relative humidity (RH). The total amount of a tasquinimod decomposition product in the sample at the end of the storage period may be determined by, for example, HPLC.
# The batch of capsules manufactured in Example 2 was assessed by determining the amount of tasquinimod and the amount of compound III in a sample of the capsules, whereby the criterion for approving the batch was that a sample of capsules from the batch, at the end of a 1-month stability testing, contain not more than 1.0% w/w of compound III relative to the amount of tasquinimod. The stability testing consisted of keeping the capsules at 40° C./75% RH in open brown glass jars. At the end of the 1-month stability testing, the capsules contained 0.13% w/w of compound III, relative to the amount of tasquinimod (1.04 mg/capsule). Therefore, according to the selected criterion for approval, the batch of capsules was determined to be suitable for distribution.
# The batch of capsules manufactured in Example 7 was assessed by determining the amount of tasquinimod and the amount of compound III in a sample of the capsules, whereby the criterion for approving the batch was that a sample of capsules from the batch, at the end of a 3-month stability testing, contain not more than 1.0% w/w of compound III relative to the amount of tasquinimod in the capsules. The stability testing consisted of keeping the capsules at 40° C./75% RH in sealed brown glass jars. At the end of the stability testing, the capsules contained 0.08% w/w of compound III, relative to the amount of tasquinimod (0.493 mg/capsule). Therefore, according to the selected criterion for approval, the batch of capsules was determined to be suitable for distribution.
# The batch of capsules manufactured in Example 13 was assessed by determining the amount of tasquinimod and the amount of compound III in a sample of the capsules, whereby the criterion for approving the batch was that the capsules of the sample, at the end of a 3-month stability testing, contain not more than 1.0% w/w of compound III relative to the amount of tasquinimod in the capsules. The stability testing consisted of keeping the capsules, in a transparent, conventional blister pack, at 40° C./75% RH. At the end of the stability testing, the capsules contained 0.12% w/w of compound III, relative to the amount of tasquinimod (determined to be 0.253 mg/capsule). Therefore, according to the selected criterion for approval, the batch of capsules was determined to be suitable for distribution.
# [2] = Drug product stability studies (general observations); format: physicochemical
# Text: In a drug product, compound I is formed with compound II from hydrolysis of tasquinimod. […] Compound II is further decarboxylated to form compound III.
# Compound III is the decarboxylated species formed from the degradation of compound II.
# The mechanism for formation of compound IV in a drug product is unknown.
# [3] = 0.25 mg capsules of Example 10, 3 months, sealed brown glass jars
# [4] = 0.25 mg capsules of Example 10, 6 months, sealed brown glass jars
# [5] = 0.25 mg capsules of Example 13, 3 months, transparent blister pack
# [6] = 0.25 mg capsules of Example 13, 6 months, blister pack
# [7] = 0.5 mg capsules of Example 7, 3 months, sealed brown glass jars
# [8] = 0.5 mg capsules of Example 7, 6 months, sealed brown glass jars
# [9] = 1 mg capsules of Example 2, 1 month, open brown glass jars
# [10] = 1 mg capsules of Example 2, 2 months, open brown glass jars
# [11] = 1 mg capsules of Example 2, 3 months, open brown glass jars
# [12] = 1 mg capsules of Example 2, 6 months, open brown glass jars
# [13] = 1 mg capsules of Example 16, 3 months, transparent blister pack
# [14] = 1 mg capsules of Example 16, 6 months, blister pack
smiles,measurement,setting,value
"COc1cccc2c1c(O)cc(=O)n2C [Compound III, 4-hydroxy-5-methoxy-1-methylquinolin-2(1H)-one]","amount of compound III in capsules, relative to the amount of tasquinimod",[1]; [3],0.10 % w/w
same,"amount of compound III in capsules, relative to the amount of tasquinimod",[1]; [4],0.10 % w/w
same,"amount of compound III in capsules, relative to the amount of tasquinimod",[1]; [5],0.12 % w/w
same,"amount of compound III in capsules, relative to the amount of tasquinimod",[1]; [6],0.24 % w/w
same,"amount of compound III in capsules, relative to the amount of tasquinimod",[1]; [7],0.08 % w/w
same,"amount of compound III in capsules, relative to the amount of tasquinimod",[1]; [8],0.14 % w/w
same,"amount of compound III in capsules, relative to the amount of tasquinimod",[1]; [9],0.13 % w/w
same,"amount of compound III in capsules, relative to the amount of tasquinimod",[1]; [10],0.12 % w/w
same,"amount of compound III in capsules, relative to the amount of tasquinimod",[1]; [11],0.14 % w/w
same,"amount of compound III in capsules, relative to the amount of tasquinimod",[1]; [12],0.16 % w/w
same,"amount of compound III in capsules, relative to the amount of tasquinimod",[1]; [13],0.13 % w/w
same,"amount of compound III in capsules, relative to the amount of tasquinimod",[1]; [14],0.21 % w/w
same,change of the amount of the compound in tasquinimod drug product on storage,[2],increase under any conditions
"COc1cccc2c1c(O)c(C(=O)N(C)c1ccc(C(F)(F)F)cc1)c(=O)n2C [Tasquinimod, 4-hydroxy-5-methoxy-N, 1-dimethyl-2-oxo-N-[4-(trifluoromethyl)phenyl]-1,2-dihydroquinoline-3-carboxamide]",amount of tasquinimod in capsules,[1]; [3],0.253 mg/capsule
same,amount of tasquinimod in capsules,[1]; [4],0.247 mg/capsule
same,amount of tasquinimod in capsules,[1]; [5],0.253 mg/capsule
same,amount of tasquinimod in capsules,[1]; [6],0.247 mg/capsule
same,amount of tasquinimod in capsules,[1]; [7],0.493 mg/capsule
same,amount of tasquinimod in capsules,[1]; [8],0.487 mg/capsule
same,amount of tasquinimod in capsules,[1]; [9],1.04 mg/capsule
same,amount of tasquinimod in capsules,[1]; [10],1.04 mg/capsule
same,amount of tasquinimod in capsules,[1]; [11],1.00 mg/capsule
same,amount of tasquinimod in capsules,[1]; [12],1.01 mg/capsule
same,amount of tasquinimod in capsules,[1]; [13],0.993 mg/capsule
same,amount of tasquinimod in capsules,[1]; [14],0.985 mg/capsule
